From ChEMBL document CHEMBL5729289, “JAK inhibitor and use thereof” (2022)

Key:
[1] = biological target: T1, Tyrosine-protein kinase JAK3 (Homo sapiens, UniProt P52333); assay: (§1) In Vitro Activity Assay: JAK3 (h) was incubated with 8 mM MOPS pH 7.0, 0.2 mM EDTA, 500 μM […], 10 mM magnesium acetate and [γ-33P]-ATP (activity and concentration were formulated as needed). Mg/ATP mixture was added to initiate the reaction. After incubating at room temperature for 40 minutes, the reaction mixture was added with 0.5% phosphoric acid to stop the reaction. Then 10 μL the reaction solution was spotted on a P30 filter pad and washed with 0.425% phosphoric acid three times and methanol once over 4 minutes, dried, and counted scintillation
T1 sequence (P52333 whole entry): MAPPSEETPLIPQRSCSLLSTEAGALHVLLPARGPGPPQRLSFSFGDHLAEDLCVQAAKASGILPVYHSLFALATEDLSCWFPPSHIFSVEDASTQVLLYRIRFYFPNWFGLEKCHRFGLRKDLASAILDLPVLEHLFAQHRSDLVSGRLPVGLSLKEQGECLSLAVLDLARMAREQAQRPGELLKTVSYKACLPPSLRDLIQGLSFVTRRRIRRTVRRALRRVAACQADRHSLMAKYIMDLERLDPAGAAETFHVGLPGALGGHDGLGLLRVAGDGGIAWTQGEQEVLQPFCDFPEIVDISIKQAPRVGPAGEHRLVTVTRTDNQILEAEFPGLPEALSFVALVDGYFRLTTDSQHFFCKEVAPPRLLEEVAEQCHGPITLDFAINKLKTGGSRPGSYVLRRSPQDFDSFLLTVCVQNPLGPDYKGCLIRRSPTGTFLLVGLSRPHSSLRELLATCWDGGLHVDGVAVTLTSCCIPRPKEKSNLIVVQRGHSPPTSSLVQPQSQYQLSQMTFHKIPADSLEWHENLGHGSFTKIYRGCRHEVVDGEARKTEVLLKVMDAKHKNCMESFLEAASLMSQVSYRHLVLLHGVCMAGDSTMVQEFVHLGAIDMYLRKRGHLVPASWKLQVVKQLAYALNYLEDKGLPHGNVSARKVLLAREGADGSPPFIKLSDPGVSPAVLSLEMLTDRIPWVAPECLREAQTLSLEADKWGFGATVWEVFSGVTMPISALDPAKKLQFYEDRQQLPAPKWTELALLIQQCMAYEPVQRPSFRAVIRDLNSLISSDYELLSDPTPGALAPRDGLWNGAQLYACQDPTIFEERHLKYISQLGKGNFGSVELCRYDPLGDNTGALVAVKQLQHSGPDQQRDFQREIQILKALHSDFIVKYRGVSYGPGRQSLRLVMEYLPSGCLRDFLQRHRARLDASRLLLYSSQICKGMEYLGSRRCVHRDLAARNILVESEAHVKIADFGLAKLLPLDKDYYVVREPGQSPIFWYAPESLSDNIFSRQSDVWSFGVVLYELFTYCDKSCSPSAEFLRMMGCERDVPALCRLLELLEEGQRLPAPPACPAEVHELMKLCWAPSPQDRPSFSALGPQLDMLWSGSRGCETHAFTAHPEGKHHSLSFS

[2] = biological target: Tyrosine-protein kinase JAK2 (Homo sapiens, UniProt O60674); assay: In Vitro Activity Assay: JAK2 (h) and 8 mM MOPS pH 7.0, 0.2 mM EDTA, 100M KTFCGTPEYLAPEVRREPRILSEEEQEMFRDFDYIADWC, 10 mM magnesium acetate and [γ-33P]-ATP (activity and concentration were formulated as needed) were incubated together. Mg/ATP mixture was added to initiate the reaction. After incubating at room temperature for 40 minutes, the reaction mixture was added with 0.5% phosphoric acid to …
[3] = biological target: Tyrosine-protein kinase JAK1 (Homo sapiens, UniProt P23458); assay: as §1, with “JAK1” for “JAK3”, “20” for “8”, “Tris/HCl” for “MOPS”, “7.5,” for “7.0,”, “μL” for “μL the”, “scintillation.” for “scintillation”
[4] = biological target: Non-receptor tyrosine-protein kinase TYK2 (Homo sapiens, UniProt P29597); assay: as §1, with “TYK2” for “JAK3”, “250” for “500”, “μL” for “μL the”, “reaction” for “reaction solution”, “scintillation.” for “scintillation”
Sequence of Non-receptor tyrosine-protein kinase TYK2 (P29597 whole entry): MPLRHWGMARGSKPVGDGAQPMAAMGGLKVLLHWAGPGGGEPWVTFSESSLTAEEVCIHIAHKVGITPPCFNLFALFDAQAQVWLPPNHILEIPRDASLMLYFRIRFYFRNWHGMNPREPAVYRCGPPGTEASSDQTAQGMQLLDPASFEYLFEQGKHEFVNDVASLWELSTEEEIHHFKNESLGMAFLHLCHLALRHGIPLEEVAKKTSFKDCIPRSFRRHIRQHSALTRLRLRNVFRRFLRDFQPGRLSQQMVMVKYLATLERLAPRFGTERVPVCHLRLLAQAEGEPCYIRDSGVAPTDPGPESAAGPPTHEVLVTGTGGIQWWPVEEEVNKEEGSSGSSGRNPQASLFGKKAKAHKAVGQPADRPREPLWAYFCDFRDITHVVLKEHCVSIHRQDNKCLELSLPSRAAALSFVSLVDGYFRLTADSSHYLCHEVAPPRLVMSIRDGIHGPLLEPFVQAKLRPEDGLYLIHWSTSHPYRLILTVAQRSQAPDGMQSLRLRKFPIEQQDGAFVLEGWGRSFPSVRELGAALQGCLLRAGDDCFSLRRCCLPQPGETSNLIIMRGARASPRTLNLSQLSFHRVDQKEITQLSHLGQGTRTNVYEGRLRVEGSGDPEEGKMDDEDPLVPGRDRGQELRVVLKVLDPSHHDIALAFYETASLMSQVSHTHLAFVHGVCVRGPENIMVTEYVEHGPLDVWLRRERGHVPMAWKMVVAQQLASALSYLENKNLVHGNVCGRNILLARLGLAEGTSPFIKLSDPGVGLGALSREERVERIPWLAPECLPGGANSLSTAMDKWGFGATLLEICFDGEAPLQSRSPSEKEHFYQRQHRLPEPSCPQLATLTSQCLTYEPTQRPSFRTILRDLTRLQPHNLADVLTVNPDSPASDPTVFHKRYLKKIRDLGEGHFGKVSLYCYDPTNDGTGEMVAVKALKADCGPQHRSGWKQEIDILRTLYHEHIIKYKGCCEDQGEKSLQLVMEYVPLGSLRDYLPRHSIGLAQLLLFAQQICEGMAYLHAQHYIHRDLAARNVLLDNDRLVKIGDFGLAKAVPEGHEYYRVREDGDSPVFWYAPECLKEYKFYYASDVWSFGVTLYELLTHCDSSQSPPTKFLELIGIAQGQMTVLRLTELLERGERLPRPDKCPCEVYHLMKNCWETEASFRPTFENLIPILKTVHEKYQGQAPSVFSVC

Sequence of Tyrosine-protein kinase JAK1 (P23458 whole entry): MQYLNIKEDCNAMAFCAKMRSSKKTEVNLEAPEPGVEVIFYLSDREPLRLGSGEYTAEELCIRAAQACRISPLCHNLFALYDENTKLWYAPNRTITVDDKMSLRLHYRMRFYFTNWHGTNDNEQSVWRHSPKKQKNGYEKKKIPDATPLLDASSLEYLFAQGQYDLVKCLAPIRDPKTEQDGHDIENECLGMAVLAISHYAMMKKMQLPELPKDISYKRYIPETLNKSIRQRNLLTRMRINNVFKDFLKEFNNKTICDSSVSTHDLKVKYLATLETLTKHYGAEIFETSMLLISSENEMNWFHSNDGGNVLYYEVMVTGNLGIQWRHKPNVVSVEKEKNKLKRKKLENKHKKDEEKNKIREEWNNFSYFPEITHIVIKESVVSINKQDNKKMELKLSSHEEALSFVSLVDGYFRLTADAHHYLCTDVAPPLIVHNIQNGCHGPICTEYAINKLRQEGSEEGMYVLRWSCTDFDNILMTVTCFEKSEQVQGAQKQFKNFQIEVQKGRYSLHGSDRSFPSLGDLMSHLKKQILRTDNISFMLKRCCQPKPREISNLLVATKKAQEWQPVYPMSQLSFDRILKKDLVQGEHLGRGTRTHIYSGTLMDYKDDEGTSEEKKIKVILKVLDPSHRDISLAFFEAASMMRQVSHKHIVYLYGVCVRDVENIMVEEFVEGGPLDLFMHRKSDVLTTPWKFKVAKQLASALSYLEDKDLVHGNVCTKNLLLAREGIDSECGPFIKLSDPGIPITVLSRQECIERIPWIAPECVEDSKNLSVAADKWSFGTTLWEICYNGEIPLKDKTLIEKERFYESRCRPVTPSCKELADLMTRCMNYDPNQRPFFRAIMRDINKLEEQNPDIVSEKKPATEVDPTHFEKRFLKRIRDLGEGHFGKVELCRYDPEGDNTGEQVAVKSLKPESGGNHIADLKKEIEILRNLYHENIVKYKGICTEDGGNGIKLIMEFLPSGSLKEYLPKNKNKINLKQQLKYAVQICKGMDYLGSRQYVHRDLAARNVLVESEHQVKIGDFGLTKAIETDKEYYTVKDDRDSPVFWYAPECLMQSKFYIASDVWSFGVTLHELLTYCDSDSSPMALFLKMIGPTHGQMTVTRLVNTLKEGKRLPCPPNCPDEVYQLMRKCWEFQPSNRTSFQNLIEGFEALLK
Sequence of Tyrosine-protein kinase JAK2 (O60674 whole entry): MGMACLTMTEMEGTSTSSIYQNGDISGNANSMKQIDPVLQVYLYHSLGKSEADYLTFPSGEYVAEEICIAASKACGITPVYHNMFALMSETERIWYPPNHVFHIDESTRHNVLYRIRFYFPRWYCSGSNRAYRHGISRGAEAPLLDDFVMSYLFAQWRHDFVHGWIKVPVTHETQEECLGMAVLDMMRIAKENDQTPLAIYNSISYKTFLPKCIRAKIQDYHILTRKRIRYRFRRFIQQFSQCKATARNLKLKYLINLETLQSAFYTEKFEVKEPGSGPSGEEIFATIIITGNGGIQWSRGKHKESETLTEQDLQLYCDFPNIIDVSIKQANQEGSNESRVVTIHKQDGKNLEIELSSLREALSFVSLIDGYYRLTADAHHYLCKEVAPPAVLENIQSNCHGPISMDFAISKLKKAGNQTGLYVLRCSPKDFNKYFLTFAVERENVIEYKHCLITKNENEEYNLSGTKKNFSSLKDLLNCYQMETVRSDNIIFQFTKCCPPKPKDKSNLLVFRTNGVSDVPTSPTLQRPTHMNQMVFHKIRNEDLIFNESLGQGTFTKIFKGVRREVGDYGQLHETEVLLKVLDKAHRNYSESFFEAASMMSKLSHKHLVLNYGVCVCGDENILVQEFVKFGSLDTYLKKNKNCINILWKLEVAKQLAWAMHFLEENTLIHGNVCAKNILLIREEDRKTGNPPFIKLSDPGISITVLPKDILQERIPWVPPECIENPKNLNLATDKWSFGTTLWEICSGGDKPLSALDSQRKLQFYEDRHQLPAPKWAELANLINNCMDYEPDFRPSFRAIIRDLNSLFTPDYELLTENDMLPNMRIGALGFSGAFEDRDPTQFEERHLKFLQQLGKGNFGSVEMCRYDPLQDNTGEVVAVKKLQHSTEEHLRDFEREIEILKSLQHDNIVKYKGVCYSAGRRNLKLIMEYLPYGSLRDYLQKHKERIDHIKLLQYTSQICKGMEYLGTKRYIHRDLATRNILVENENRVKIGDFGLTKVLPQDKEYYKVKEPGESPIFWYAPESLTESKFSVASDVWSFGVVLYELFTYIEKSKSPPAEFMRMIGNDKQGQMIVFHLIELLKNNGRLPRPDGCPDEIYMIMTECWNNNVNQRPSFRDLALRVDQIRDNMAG

IC50 [1]	IC50 [2]	IC50 [3]	IC50 [4]	Compound
> 10 µM	1.38 µM	0.182 µM		N#CC1(C(=O)NC2CC=C(c3cccc4nc(NC(=O)C5CC5)nn34)CC2)CC1 (configuration not stated)
> 10 µM	1.16 µM	0.209 µM	0.729 µM	CC1(C(=O)NC2CC=C(c3cccc4nc(NC(=O)C5CC5)nn34)CC2)CC1(F)F (configuration not stated)
